Assay results: patent publication US20260035364A1, “BICYCLIC TETRAHYDROTHIAZEPINE DERIVATIVES” (Hoffmann-La Roche Inc., priority 2022, published 2026)

System: primary human T-cells
Experiment: IL2 secretion measurements in CD3-stimulated T-cells
Format: cell-based
Settings: CD3 condition; for Emax / EC50: Homo sapiens, T-cell, 24 h; for Emax: read-out: Emax IL2 (% activation); for EC50: IL2 secretion after 24 hours, read-out: Tcell IL2 CD3 EC50
Outline: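 Expanded primary human T-cells (100k/well) were stimulated on CD3 antibody-coated or PBS-coated plates with compounds in 5–6 point dose response from 20 or 10 μM top final (dilution factor 3.333, 0.2% DMSO final). IL2 in 24 h supernatants was measured by ProQuantum immunoassay or ELISA, normalized to DMSO (0%) and 20 μM reference compound A1 (100%) to fit EC50 and Emax.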

[1] = IL2 after 24 hours, 20 μM reference compound A1 = 100%

**Q.** Which Emax [1] does the source give for CC(C)(c1nnc(-c2ccc3c(c2)N(Cc2ccc(OC4CCCC4)cc2)C(=O)[C@@H](N)CS3(=O)=O)o1)S(C)(=O)=O [Example 16, (3R)-3-amino-5-[[4-(cyclopentoxy)phenyl]methyl]-7-[5-(1-methyl-1-methylsulfonyl-ethyl)-1,3,4-oxadiazol-2-yl]-1,1-dioxo-2,3-dihydro-1λ6,5-benzothiazepin-4-one] here?
**A.** 61%

**Q.** And the EC50?
**A.** 6220 nM

**Q.** Which results are given for CC(C)(c1nnc(-c2ccc3c(c2)N(Cc2ccc(Oc4cccc(F)c4)cc2)C(=O)[C@@H](N)CS3(=O)=O)o1)S(C)(=O)=O [Example 33, (3R)-3-amino-5-[[4-(3-fluorophenoxy)phenyl]methyl]-7-[5-(1-methyl-1-methylsulfonyl-ethyl)-1,3,4-oxadiazol-2-yl]-1,1-dioxo-2,3-dihydro-1λ6,5-benzothiazepin-4-one]?
**A.** Emax [1]: 58%; EC50: 580 nM

**Q.** What does the source list for CC(C)(c1nnc(-c2ccc3c(c2)N(Cc2ccc(Oc4ccc(F)c(Cl)c4)cc2)C(=O)[C@@H](N)CS3(=O)=O)o1)S(C)(=O)=O [Example 37, (3R)-3-amino-5-[[4-(3-chloro-4-fluoro-phenoxy)phenyl]methyl]-7-[5-(1-methyl-1-methylsulfonyl-ethyl)-1,3,4-oxadiazol-2-yl]-1,1-dioxo-2,3-dihydro-1λ6,5-benzothiazepin-4-one]?
**A.** Emax [1]: 135%; EC50: 8140 nM

**Q.** How did the Emax [1] turn out when CC(C)(c1nc(-c2cc3c(cc2F)S(=O)(=O)C[C@H](N)C(=O)N3Cc2ccc(Oc3ccccc3)nc2)no1)S(C)(=O)=O [Example 48, (3R)-3-amino-8-fluoro-7-[5-(1-methyl-1l-methylsulfonyl-ethyl)-1,2,4-oxadiazol-3-yl]-1,1-dioxo-5-[(6-phenoxy-3-pyridyl)methyl]-2,3-dihydro-1 λ6,5-benzothiazepin-4-one] was run?
**A.** 165%

**Q.** And the EC50?
**A.** 1050 nM

**Q.** Which Emax [1] does the source give for CC(C)(c1nnc(-c2ccc3c(c2)N(Cc2ccc(OCc4ccccc4F)cc2)C(=O)[C@@H](N)CS3(=O)=O)o1)S(C)(=O)=O [Example 14, (3R)-3-amino-5-[[4-[(2-fluorophenyl)methoxy]phenyl]methyl]-7-[5-(1-methyl-1-methylsulfonyl-ethyl)-1,3,4-oxadiazol-2-yl]-1,1-dioxo-2,3-dihydro-1λ6,5-benzothiazepin-4-one] here?
**A.** 101%

**Q.** And the EC50?
**A.** 3770 nM

**Q.** Which Emax [1] does the source give for COc1ccc(-c2ccc(CN3C(=O)[C@@H](N)CS(=O)(=O)c4cc(F)c(-c5nnc(C(C)(C)S(C)(=O)=O)o5)cc43)cc2)cc1 [Example 29, (3R)-3-amino-8-fluoro-5-[[4-(4-methoxyphenyl)phenyl]methyl]-7-[5-(1-methyl-1-methylsulfonyl-ethyl)-1,3,4-oxadiazol-2-yl]-1,1-dioxo-2,3-dihydro-1λ6,5-benzothiazepin-4-one] here?
**A.** 284%

**Q.** And the EC50?
**A.** 431 nM

**Q.** Which Emax [1] does the source give for CCC(CC)Oc1ccc(CN2C(=O)[C@@H](N)CS(=O)(=O)c3ccc(-c4nnc(C(C)(C)S(C)(=O)=O)o4)cc32)cc1 [Example 19, (3R)-3-amino-5-[[4-(1-ethylpropoxy)phenyl]methyl]-7-[5-(1-methyl-1-methylsulfonyl-ethyl)-1,3,4-oxadiazol-2-yl]-1,1-dioxo-2,3-dihydro-1λ6,5-benzothiazepin-4-one] here?
**A.** 54%

**Q.** What about the EC50 of the same compound?
**A.** 8700 nM

**Q.** What does the source list for CC(C)(c1nnc(-c2ccc3c(c2)N(Cc2ccc(Oc4cccc(C(F)(F)F)c4)cc2)C(=O)[C@@H](N)CS3(=O)=O)o1)S(C)(=O)=O [Example 38]?
**A.** Emax [1]: 155%; EC50: 424 nM

**Q.** What does the source list for CC(C)(c1nnc(-c2ccc3c(c2)N(Cc2ccc(-c4ccc(C#N)cc4)cc2)C(=O)[C@@H](N)CS3(=O)=O)o1)S(C)(=O)=O [Example 20, 4-[4-[[(3R)-3-amino-7-[5-(1-methyl-1-methylsulfonyl-ethyl)-1,3,4-oxadiazol-2-yl]-1,1,4-trioxo-2,3-dihydro-1λ6,5-benzothiazepin-5-yl]methyl]phenyl]benzonitrile]?
**A.** Emax [1]: 77%; EC50: 5000 nM

**Q.** For CC(C)(c1nnc(-c2cc3c(cc2F)S(=O)(=O)C[C@H](N)C(=O)N3Cc2ccc(-c3ccc(C(F)(F)F)cc3)cc2)o1)S(C)(=O)=O [Example 35, (3R)-3-amino-8-fluoro-7-[5-(1-methyl-1-methylsulfonyl-ethyl)-1,3,4-oxadiazol-2-yl]-1,1-dioxo-5-[[4-[4-(trifluoromethyl)phenyl]phenyl]methyl]-2,3-dihydro-1λ6,5-benzothiazepin-4-one], which Emax [1] is on record?
**A.** 239%

**Q.** And the EC50?
**A.** 43 nM

**Q.** What does the source list for COc1cccc(Oc2ccc(CN3C(=O)[C@@H](N)CS(=O)(=O)c4ccc(-c5nnc(C(C)(C)S(C)(=O)=O)o5)cc43)cc2)c1 [Example 42]?
**A.** Emax [1]: 125%; EC50: 3130 nM

**Q.** CC(C)(c1nnc(-c2ccc3c(c2)N(Cc2ccc(Oc4cccc(Br)c4)cc2)C(=O)[C@@H](N)CS3(=O)=O)o1)S(C)(=O)=O [Example 60, (3R)-3-amino-5-[[4-(3-bromophenoxy)phenyl]methyl]-7-[5-(1-methyl-1-methylsulfonyl-ethyl)-1,3,4-oxadiazol-2-yl]-1,1-dioxo-2,3-dihydro-1λ6,5-benzothiazepin-4-one] was tested. Which Emax [1] did it give?
**A.** 106%

**Q.** What about the EC50 of the same compound?
**A.** 1180 nM

**Q.** Which Emax [1] does the source give for CC(C)(c1nc(-c2cc3c(cc2F)S(=O)(=O)C[C@H](N)C(=O)N3Cc2ccc(Cl)cc2)no1)S(C)(=O)=O [Example 43, (3R)-3-amino-5-[(4-chlorophenyl)methyl]-8-fluoro-7-[5-(1-methyl-1-methylsulfonyl-ethyl)-1,2,4-oxadiazol-3-yl]-1,1-dioxo-2,3-dihydro-1λ6,5-benzothiazepin-4-one] here?
**A.** 163%

**Q.** What about the EC50 of the same compound?
**A.** 131 nM

**Q.** With CC(C)(c1nc(-c2cc3c(cc2F)S(=O)(=O)C[C@H](N)C(=O)N3Cc2ccc(Oc3ccccc3)cc2)no1)S(C)(=O)=O [Example 30, (3R)-3-amino-8-fluoro-7-[5-(1-methyl-1-methylsulfonyl-ethyl)-1,2,4-oxadiazol-3-yl]-1,1-dioxo-5-[(4-phenoxyphenyl)methyl]-2,3-dihydro-1λ6,5-benzothiazepin-4-one] as the compound, how does the Emax [1] read?
**A.** 265%

**Q.** And the EC50?
**A.** 485 nM

**Q.** With CC(C)(c1nnc(-c2ccc3c(c2)N(Cc2ccc(Oc4cccc(Cl)c4)cc2)C(=O)[C@@H](N)CS3(=O)=O)o1)S(C)(=O)=O [Example 34, (3R)-3-amino-5-[[4-(3-chlorophenoxy)phenyl]methyl]-7-[5-(1-methyl-1-methylsulfonyl-ethyl)-1,3,4-oxadiazol-2-yl]-1,1-dioxo-2,3-dihydro-1λ6,5-benzothiazepin-4-one] as the compound, how does the Emax [1] read?
**A.** 89%

**Q.** What about the EC50 of the same compound?
**A.** 1000 nM

**Q.** What does the source list for Cc1cccc(Oc2ccc(CN3C(=O)[C@@H](N)CS(=O)(=O)c4ccc(-c5nnc(C(C)(C)S(C)(=O)=O)o5)cc43)cc2)c1 [Example 31]?
**A.** Emax [1]: 176%; EC50: 745 nM

**Q.** With CC(C)(c1nnc(-c2ccc3c(c2)N(Cc2ccc(OCC(F)(F)F)cc2)C(=O)[C@@H](N)CS3(=O)=O)o1)S(C)(=O)=O [Example 6, (3R)-3-amino-7-[5-(1-methyl-1-methylsulfonyl-ethyl)-1,3,4-oxadiazol-2-yl]-1,1-dioxo-5-[[4-(2,2,2-trifluoroethoxy)phenyl]methyl]-2,3-dihydro-1λ6,5-benzothiazepin-4-one] as the compound, how does the Emax [1] read?
**A.** 54%

**Q.** What about the EC50 of the same compound?
**A.** 2660 nM

**Q.** What does the source list for CC(C)(c1nc(-c2cc3c(cc2F)S(=O)(=O)C[C@H](N)C(=O)N3Cc2ccc(OCc3nc(C(F)(F)F)no3)cc2)no1)S(C)(=O)=O [Example 59, (3R)-3-amino-8-fluoro-7-[5-(1-methyl-1-methylsulfonyl-ethyl)-1,2,4-oxadiazol-3-yl]-1,1-dioxo-5-[[4-[[3-(trifluoromethyl)-1,2,4-oxadiazol-5-yl]methoxy]phenyl]methyl]-2,3-dihydro-1λ6,5-benzothiazepin-4-one]?
**A.** Emax [1]: 135%; EC50: 4270 nM

**Q.** With CC(C)(c1nnc(-c2cc3c(cc2F)S(=O)(=O)C[C@H](N)C(=O)N3Cc2ccc(OC(F)(F)C(F)F)cc2)o1)S(C)(=O)=O [Example 26, (3R)-3-amino-8-fluoro-7-[5-(1-methyl-1-methylsulfonyl-ethyl)-1,3,4-oxadiazol-2-yl]-1,1-dioxo-5-[[4-(1,1,2,2-tetrafluoroethoxy)phenyl]methyl]-2,3-dihydro-1λ6,5-benzothiazepin-4-one] as the compound, how does the Emax [1] read?
**A.** 159%

**Q.** What about the EC50 of the same compound?
**A.** 545 nM

**Q.** CC(C)(c1nnc(-c2ccc3c(c2)N(Cc2ccc(SC(F)(F)F)cc2)C(=O)[C@@H](N)CS3(=O)=O)o1)S(C)(=O)=O [Example 7] was tested. Which Emax [1] did it give?
**A.** 94%

**Q.** And the EC50?
**A.** 2800 nM

**Q.** What does the source list for CC(C)(c1nnc(-c2ccc3c(c2)N(Cc2ccc(-c4ccc(C(F)(F)F)cc4)cc2)C(=O)[C@@H](N)CS3(=O)=O)o1)S(=O)(=O)N1CCCC1 [Example 67, (3R)-3-amino-7-[5-(1-methyl-1-pyrrolidin-1-ylsulfonyl-ethyl)-1,3,4-oxadiazol-2-yl]-1,1-dioxo-5-[[4-[4-(trifluoromethyl)phenyl]phenyl]methyl]-2,3-dihydro-1λ6,5-benzothiazepin-4-one]?
**A.** Emax [1]: 71%; EC50: 1760 nM

**Q.** For CC(C)(c1nc(-c2cc3c(cc2F)[S+]([O-])C[C@H](N)C(=O)N3Cc2ccc(Oc3ccccc3)cc2)no1)S(C)(=O)=O (stereo partly drawn) [Example 51, (3R)-3-amino-8-fluoro-7-[5-(1-methyl-1-methylsulfonyl-ethyl)-1,2,4-oxadiazol-3-yl]-1-oxo-5-[(4-phenoxyphenyl)methyl]-2,3-dihydro-1λ4,5-benzothiazepin-4-one], which “Emax IL2 (% activation)” value [1] is on record?
**A.** 101%

**Q.** And the EC50?
**A.** 897 nM

**Q.** How did the Emax [1] turn out when CC(C)(c1nnc(-c2ccc3c(c2)N(Cc2ccc(Oc4ccccc4)cc2)C(=O)[C@@H](N)CS3(=O)=O)o1)S(C)(=O)=O [Example 5, (3R)-3-amino-7-[5-(1-methyl-1-methylsulfonyl-ethyl)-1,3,4-oxadiazol-2-yl]-1,1-dioxo-5-[(4-phenoxyphenyl)methyl]-2,3-dihydro-1λ6,5-benzothiazepin-4-one] was run?
**A.** 118%

**Q.** What about the EC50 of the same compound?
**A.** 2110 nM

**Q.** What does the source list for CC(C)(c1nnc(-c2cc3c(cc2F)S(=O)(=O)C[C@H](N)C(=O)N3Cc2ccc(-c3ccc(C(F)(F)F)nc3)cc2)o1)S(C)(=O)=O [Example 36]?
**A.** Emax [1]: 61%; EC50: 637 nM
